Measurements reported in US12161648B2, “Covalent targeting of E3 ligases” (The Regents of the University of California, priority 2018, dated 2024).
“Also recorded” adds a separate entry of the source. One block for each molecule: values may come before it.

Columns and labels:
BRD4 [1] = assay: Cell based degrader assay, BRD4 levels by Western blotting in 231MFP cells; design: species or system human; conditions: for dose-response of BRD4 degradation: 12 h
Protocol: (§1) Cell based degrader assays. For assaying degrader activity, cells were seeded (500,000 for 231MFP cells, 300,000 for HeLa cells) into a 6 cm tissue culture dish (Corning) in 2.0-2.5 mL of media and allowed to adhere overnight. The following morning, media was replaced with complete media containing the desired concentration of compound diluted from a 1000× stock in DMSO. At the specified timepoint, cells were washed once with PBS on ice, before 150 uL of lysis buffer was added to the plate (10 mM sodium phosphate, 150 mM NaCl, 0.1% SDS, 0.5% sodium deoxycholate, 1% Triton X100). The cells were incubated in lysis buffer for 5 min before scraping and transfer to microcentrifuge tubes. The lysates were then frozen at −80 C or immediately processed for western blotting. To prepare for western blotting, the lysates were cleared with 20,000 g spin for 10 min and the resulting supernatants quantified via BCA assay. The lysates were normalized by dilution with PBS to match the lowest concentration lysate and appropriate amount of 4× Laemmli's reducing buffer added.
Western blotting. Antibodies to RNF4 (Proteintech, 17810-1-AP, 1:1000), GAPDH (Proteintech, 60004-1-IG, 1:5000), BRD4 (Abcam, Ab128874, 1:1000), and beta-actin (Proteintech Group Inc., 6609-1-IG, 1:7000) were obtained from the specified commercial sources and dilutions were prepared in 5% BSA/TBST at the specified dilutions.

human RNF114 = assay: Gel-based ABPP, competition against JNS27 labeling of pure RNF114; type: binding; conditions: JNS27 50 μM
Protocol: (§2) Gel-Based ABPP. Gel-based ABPP methods were performed as previously described^34,62,63,67. Recombinant pure human proteins were purchased from Origene. […] CuAAC was performed to append rhodamine-azide (1 μM final concentration) onto alkyne probe-labeled proteins. Samples were then diluted with 20 μL of 4× reducing Laemmli SDS sample loading buffer (Alfa Aesar) and heated at 90° C. for 5 min. The samples were separated on precast 4-20% TGX gels (Bio-Rad Laboratories, Inc.). Prior to scanning by ChemiDoc MP (Bio-Rad Laboratories, Inc), gels were fixed in a solution of 10% acetic acid, 30% ethanol for 2 hrs. Inhibition of target labeling was assessed by densitometry using ImageJ.
as §2, with “described^14.” for “described^34,62,63,67.”

RNF4 = biological target: T1, RNF4 (Homo sapiens, UniProt P78317); assay: Gel-based ABPP, competition against IA-rhodamine labeling of pure RNF4; type: binding; conditions: for inhibition of IA-rhodamine labeling of RNF4: confirmation of screening hits; for hits from covalent ligand screen against IA-rhodamine labeling of RNF4: covalent ligands 50 μM, IA-rhodamine 250 nM 1 h; for hits from covalent ligand screen against IA-rhodamine labeling of RNF4 / IC50: 30 min pre-incubation; for IC50: read-out: 50% inhibitory concentration (IC50), IA-rhodamine labeling of RNF4, densitometry
T1 construct: purchased Boston Biochem K-220
T1 sequence (P78317 1-190): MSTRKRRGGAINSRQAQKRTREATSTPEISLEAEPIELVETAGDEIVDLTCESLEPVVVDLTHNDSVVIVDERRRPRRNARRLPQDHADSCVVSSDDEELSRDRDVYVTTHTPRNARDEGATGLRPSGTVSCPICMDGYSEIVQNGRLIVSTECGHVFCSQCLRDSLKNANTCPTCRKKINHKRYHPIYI
Protocol: Gel-Based ABPP. Gel-based ABPP methods were performed as previously described^5,6,25,26. Pure recombinant human RNF4 was purchased from Boston Biochem (K-220). RNF4 (0.25 μg) was diluted into 50 μL of PBS and 1p L of either DMSO (vehicle) or covalently acting small molecule to achieve the desired concentration. After 30 minutes at room temperature, the samples were treated with 250 nM IA-Rhodamine (Setareh Biotech, 6222, prepared in anhydrous DMSO) for 1 h at room temperature. Samples were then diluted with 20 μL of 4× reducing Laemmli SDS sample loading buffer (Alfa Aesar) and heated at 90° C. for 5 min. The samples were separated on precast 4-20% Criterion TGX gels (Bio-Rad Laboratories, Inc.). Fluorescent imaging was performed on a ChemiDoc MP (Bio-Rad Laboratories, Inc) inhibition of target labeling was assessed by densitometry using ImageJ.

RNF114 = biological target: T2, RNF114 (Homo sapiens, UniProt Q9Y508); assay: Nimbolide-alkyne labeling of RNF114 in 231MFP cells in situ; type: cell-based
T2 construct: Myc; FLAG; purchased Origene
Protocol: Biotin-azide was appended to probe-labeled proteins by CuAAC, and these proteins were subsequently avidin-enriched. Resulting pulled down proteins were analyzed by SDS/PAGE and Western blotting for RNF114. Gels shown in FIGS. 21C-21F are representative gels from n=3 biologically independent samples/group.

231MFP cells = assay: Quantitative proteomic profiling of proteins enriched by the nimbolide-alkyne probe in 231MFP cells; type: cell-based, human; conditions: in situ labeling of 231MFP cells
[2] = tested on: 231MFP breast cancer cells; assay: TMT-based quantitative proteomic profiling of 231MFP cells; type: cell-based, human; conditions: 100 nM, 12 h
From the text: Data shown in (FIG. 22F) are for 6397 proteins quantified with 2 or more unique peptides in n=3 biologically independent samples/group.
Data shown in FIG. 23I are for 5797 proteins quantified with 2 or more unique peptides in triplicate treatments.

BRD4 [3] = assay: BRD4 degradation in RNF114 wild-type and knockout HAP1 cells; type: cell-based, human
[4] = tested on: 231MFP breast cancer cell proteomes; assay: Gel-based ABPP of general cysteine-reactivity in 231MFP lysates; type: binding, human; conditions: IA-rhodamine 250 nM
Protocol: FIG. 5. Additional hits against RNF4 and general assessment of proteome-wide selectivity of RNF4 hits by gel-based ABPP. Gel-based ABPP analysis of DKM 2-76 and TRH 1-74 against IA-rhodamine labeling of RNF4. Covalent ligands were pre-incubated with pure RNF4 protein for 30 min prior to IA-rhodamine labeling (250 nM) for 1 h. Proteins were subjected to SDS/PAGE and visualized by in-gel fluorescence. Gel-based ABPP screen of RNF4 hits YP 1-44 and TRH 1-23 against IA-rhodamine labeling in 231MFP breast cancer cell proteomes. YP 1-44 and TRH 1-23 were pre-incubated with proteome for 30 min prior to IA-rhodamine labeling (250 nM) for 1 h. Proteins were subjected to SDS/PAGE and visualized by in-gel fluorescence.

BRD4 [5] = biological target: T3, BRD4 (Homo sapiens, UniProt O60885); assay: BRD4 degradation in RNF4 wild-type and knockout HeLa cells; type: cell-based; conditions: 10 μM 5 h
T3 construct: endogenous in cells; host or cells: HeLa cells, RNF4 wild-type and RNF4 knockout
Protocol: Cell Culture. The 231MFP cells were obtained from Prof. Benjamin Cravatt and were generated from explanted tumor xenografts of MDA-MB-231 cells as previously described^27. RNF4 knockout HeLa cells were purchased from EdiGene USA (CL0033025003A). RNF4 wild-type HeLa cells were provided by EdiGene USA or the UC Berkeley Cell Culture Facility. 231MFP cells were cultured in L-15 media (Corning) containing 10% (v/v) fetal bovine serum (FBS) and maintained at 37° C. with 0% CO2. HeLa cells were cultured in DMEM media (Corning) containing 10% (v/v) fetal bovine serum (FBS) and maintained at 37° C. with 5% CO2.
as §1, with “The cells were incubated in lysis buffer for 5 min before scraping and transfer to microcentrifuge tubes. The lysates were then frozen at −80 C or immediately processed for western blotting.” left out, “The lysates were normalized by dilution with PBS to match the lowest concentration lysate and appropriate amount of 4× Laemmli's reducing buffer added.” left out

[6] = tested on: 231MFP breast cancer cells; assay: isoTOP-ABPP proteome-wide selectivity in 231MFP cells in situ; type: cell-based, human
Protocol: IsoTOP-ABPP chemoproteomic studies. IsoTOP-ABPP studies were done as previously reported^4,6,7,12. […] Proteomes were subsequently treated with IA-alkyne (100 μM, Chess GmbH, 3187) for 1 h at RT. […] Tryptic peptides were eluted off.
Mass Spectrometry Analysis.

T2 sequence (Q9Y508 whole entry): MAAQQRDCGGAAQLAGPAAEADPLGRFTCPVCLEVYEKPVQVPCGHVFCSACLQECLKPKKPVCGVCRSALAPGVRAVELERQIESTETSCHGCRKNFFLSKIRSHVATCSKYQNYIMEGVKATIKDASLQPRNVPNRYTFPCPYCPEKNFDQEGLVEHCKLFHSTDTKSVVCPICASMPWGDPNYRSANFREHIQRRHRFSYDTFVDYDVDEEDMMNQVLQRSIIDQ

Structure (SMILES): Cc1ncsc1-c1ccc(CNC(=O)[C@@H]2C[C@@H](O)CN2C(=O)[C@@H](NC(=O)COCCOCCOCCNC(=O)C[C@@H]2N=C(c3ccc(Cl)cc3)c3c(sc(C)c3C)-n3c(C)nnc32)C(C)(C)C)cc1 [MZ1, reference compound]
- dose-response of BRD4 degradation (BRD4 [1]; 231MFP cells): less degradation at 20 μM compared to 10, 1, and 0.1 μM; also recorded: better BRD4 degradation at 1 and 0.1 μM, and equivalent degradation to XH2 at 10 nM

Structure (SMILES): C#CCC1CCC=CC1=O (stereo not shown) [JNS27, reference compound]
- probe labeling of RNF114, wild-type versus C8A mutant (human RNF114): selective labeling of C8 on RNF114

Structure (SMILES): COC(=O)C[C@H]1[C@]2(C)C3=C(C)[C@H](c4ccoc4-c4ccc(C(=O)NCCOCCOCCOCCNC(=O)C[C@@H]5N=C(c6ccc(Cl)cc6)c6c(sc(C)c6C)-n6c(C)nnc65)cc4)C[C@H]3O[C@@H]2[C@@H]2OC(=O)[C@]3(C)C=CC(=O)[C@@]1(C)[C@@H]23 [XH1]
- BRD4 degradation (BRD4 [1]; 231MFP cells, 12 h treatment): did not show appreciable BRD4 degradation

Structure (SMILES): COC(=O)C[C@H]1[C@]2(C)C3=C(C)[C@H](c4ccoc4-c4ccc(C(=O)NCCCNC(=O)C[C@@H]5N=C(c6ccc(Cl)cc6)c6c(sc(C)c6C)-n6c(C)nnc65)cc4)C[C@H]3O[C@@H]2[C@@H]2OC(=O)[C@]3(C)C=CC(=O)[C@@]1(C)[C@@H]23 [XH2]
- time to BRD4 degradation (BRD4 [1]; 231MFP cells, 100 nM): ≤ 12 h
- dose-response of BRD4 degradation (BRD4 [1]; 231MFP cells): less degradation at 1 μM compared to 0.1 and 0.01 μM
- BRD4 degradation (BRD4 [1]; 231MFP cells, 12 h treatment): led to BRD4 degradation
- BRD4 degradation with proteasome inhibitor bortezomib (BTZ) (BRD4 [1]; 231MFP, BTZ 1 μM, degrader 100 nM 12 h): attenuated
- BRD4 degradation with TAK-243 or pre-competing JQ1 (BRD4 [1]; 231MFP, TAK-243 10 μM or JQ1 1 μM, degrader 100 nM 12 h): prevented; also recorded: attenuated
- BRD4 degradation with translation inhibitor emetine (BRD4 [1]; 231MFP, emetine 75 μM, degrader 100 nM 12 h): had no effect
- BRD2 and BRD3 levels [2]: sparing the other identified BET family members BRD2 and BRD3
- selectivity of protein degradation, BRD4 [2]: selectively degrades BRD4
- BRD4 degradation after re-expression of wild-type RNF114 in HAP1 RNF114 knockout cells (BRD4 [3]): restoration of BRD4 degradation
- BRD4 degradation in RNF114 knockout (KO) HAP1 cells (BRD4 [3]; 100 nM, 12 h): not observed

Structure (SMILES): Cc1sc2c(c1C)C(c1ccc(Cl)cc1)=N[C@@H](CC(=O)NCCCCOc1ccc(Oc3ccc(N(Cc4ccccc4)C(=O)CCl)cc3)cc1)c1nnc(C)n1-2 [CCW 28-3, (S)—N-benzyl-2-chloro-N-(4-(4-(4-(2-(4-(4-chlorophenyl)-2,3,9-trimethyl-6H-thieno[3,2-f][1,2,4]triazolo[4,3-a][1,4]diazepin-6-yl)acetamido)butoxy)phenoxy)phenyl)acetamide]
- IC50 (RNF4): 540 nM
- BRD4 degradation compared with MZ1 (BRD4 [1]): does not degrade BRD4 as well as
- BRD4 degradation (BRD4 [1]; 231MFP cells, 3 h): leads to BRD4 degradation; also recorded: degrades BRD4 in a dose-responsive manner
- BRD4 degradation after pre-treatment with bortezomib (BTZ), JQ1 or TAK-243 (BRD4 [1]; 231MFP, inhibitors 10 μM 30 min, degrader 1 μM 3 h): prevented
- BRD4 degradation in RNF4 knockout cells (BRD4 [5]; RNF4 knockout HeLa): not evident
- BRD4 degradation in HeLa control cells (BRD4 [5]; RNF4 wild-type): observed
- selectivity for RNF4 in cells [6]: not yet completely selective
- off-targets part of the ubiquitin-proteasome system ([6]; 10 μM in situ): none of these off-targets of CCW 28-3 are part of the ubiquitin-proteasome system
- targets with isotopically light to heavy ratios greater than 4 out of 1114 total quantified probe-modified peptides ([6]; 10 μM in situ 1 h, IA-alkyne 100 μM): 7

Structure (SMILES): CC(CCc1ccccc1)NC(=O)CCl (stereo not shown) [DKM 2-76]
- hits from covalent ligand screen against IA-rhodamine labeling of RNF4 (RNF4): potential hits

Structure (SMILES): COc1ccc(Oc2ccc(N(Cc3ccccc3)C(=O)CCl)cc2)cc1 [CCW16, N-benzyl-2-chloro-N-(4-(4-methoxyphenoxy)phenyl)acetamide]
- reduced IA-rhodamine labeling of RNF4 observed down to (RNF4): 1 µM
- IC50 (RNF4): 1800 nM
- selectivity for RNF4 in cells [6]: not yet completely selective

The next lines start with results.

- hits from covalent ligand screen against IA-rhodamine labeling of RNF4 (RNF4): potential hits
- silver staining of RNF4 (RNF4; gel-based ABPP gels silver stained): may be causing protein precipitation
Structure (SMILES): O=C(CCl)Nc1cccc2cnccc12 [TRH 1-163, 2-Chloro-N-(isoquinolin-5-yl)acetamide]
- inhibition of IA-rhodamine labeling of RNF4 (RNF4): reproducible and dose-responsive inhibition

- in situ probe labeling of Flag-tagged RNF114 observed down to (RNF114; 231MFP cells expressing Flag-RNF114, 2 h): 100 nM
- pulldown of endogenous RNF114 (RNF114; 231MFP cells, 50 μM probe, 1.5 h): significant pulldown
Structure (SMILES): C#CCNC(=O)c1ccc(-c2occc2[C@@H]2C[C@H]3O[C@@H]4[C@@H]5OC(=O)[C@]6(C)C=CC(=O)[C@](C)([C@@H](CC(=O)OC)[C@]4(C)C3=C2C)[C@@H]56)cc1 [nimbolide-alkyne probe]
- additional proteins enriched by >10-fold compared to no-probe controls (231MFP cells): 114
- enrichment of RNF114 compared to no-probe controls (231MFP cells): > 10 fold

- hits from covalent ligand screen against IA-rhodamine labeling of RNF4 (RNF4): potential hits
Structure (SMILES): C=CC(=O)n1ccc2ccccc21 [YP 1-44, 1-(1H-indol-1-yl)prop-2-en-1-one]
- inhibition of IA-rhodamine labeling of RNF4 (RNF4): reproducible and dose-responsive inhibition
- selectivity, general cysteine-reactivity [4]: much less selective compared to TRH 1-23

- hits from covalent ligand screen against IA-rhodamine labeling of RNF4 (RNF4): potential hits
Structure (SMILES): C=CC(=O)NC1Cc2ccccc2C1 [TRH 1-74]
